# Earlier results as cited in patent US9745567B2, “Compositions and methods for treating multiple sclerosis” (REVALESIO CORPORATION, priority 2008, dated 2017).
# Counter-ions that a name gives are not always drawn. Like-named read-outs stand apart in the source and are kept apart here.
# Assays:
# MMP-9 = MMP-9 (Homo sapiens, UniProt P14780)
# MMP-2 = target: T1, MMP-2 (Homo sapiens, UniProt P08253)
# T1 sequence (P08253 110-660): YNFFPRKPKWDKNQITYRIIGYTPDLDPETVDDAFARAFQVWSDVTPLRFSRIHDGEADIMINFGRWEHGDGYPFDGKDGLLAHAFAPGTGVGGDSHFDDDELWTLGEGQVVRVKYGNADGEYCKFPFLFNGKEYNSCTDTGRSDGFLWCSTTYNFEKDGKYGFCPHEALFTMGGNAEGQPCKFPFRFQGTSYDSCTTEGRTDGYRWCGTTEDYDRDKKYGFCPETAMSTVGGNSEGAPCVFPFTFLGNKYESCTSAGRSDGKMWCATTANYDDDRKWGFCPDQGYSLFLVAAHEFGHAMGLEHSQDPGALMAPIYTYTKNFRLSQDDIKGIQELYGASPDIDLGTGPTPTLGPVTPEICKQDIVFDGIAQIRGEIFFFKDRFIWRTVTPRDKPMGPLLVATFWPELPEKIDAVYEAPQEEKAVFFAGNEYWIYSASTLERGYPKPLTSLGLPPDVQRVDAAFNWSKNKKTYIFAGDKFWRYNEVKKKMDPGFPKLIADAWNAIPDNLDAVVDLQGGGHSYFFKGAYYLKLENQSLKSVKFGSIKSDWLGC
# MMP-1 = target: T2, MMP-1 (Homo sapiens, UniProt P03956)
# T2 sequence (P03956 100-469): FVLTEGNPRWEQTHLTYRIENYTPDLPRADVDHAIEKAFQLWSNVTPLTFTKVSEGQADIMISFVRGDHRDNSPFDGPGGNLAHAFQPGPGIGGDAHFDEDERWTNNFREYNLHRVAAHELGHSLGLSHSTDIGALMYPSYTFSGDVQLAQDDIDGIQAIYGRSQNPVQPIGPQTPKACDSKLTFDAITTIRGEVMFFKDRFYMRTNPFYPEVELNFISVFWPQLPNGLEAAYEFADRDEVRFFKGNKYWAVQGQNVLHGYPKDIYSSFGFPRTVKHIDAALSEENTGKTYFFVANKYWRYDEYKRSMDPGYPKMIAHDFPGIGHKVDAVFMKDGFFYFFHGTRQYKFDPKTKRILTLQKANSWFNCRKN
# MMP-3 [1] = target: T3, MMP-3 (Homo sapiens, UniProt P08254)
# Target sequence in this assay (P08254 100-477, species assumed): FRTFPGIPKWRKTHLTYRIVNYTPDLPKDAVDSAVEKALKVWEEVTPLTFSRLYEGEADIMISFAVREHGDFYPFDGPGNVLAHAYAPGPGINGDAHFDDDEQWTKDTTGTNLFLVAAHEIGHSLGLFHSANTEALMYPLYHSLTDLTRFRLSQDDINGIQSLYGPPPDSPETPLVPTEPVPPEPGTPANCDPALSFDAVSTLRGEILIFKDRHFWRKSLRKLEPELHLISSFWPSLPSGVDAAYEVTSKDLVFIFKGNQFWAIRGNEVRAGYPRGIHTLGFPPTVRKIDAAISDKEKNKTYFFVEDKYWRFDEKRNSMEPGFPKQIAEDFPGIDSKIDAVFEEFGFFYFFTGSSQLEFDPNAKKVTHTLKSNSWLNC
# MMP-7 = target: T4, MMP-7 (Homo sapiens, UniProt P09237)
# T4 sequence (P09237 95-267): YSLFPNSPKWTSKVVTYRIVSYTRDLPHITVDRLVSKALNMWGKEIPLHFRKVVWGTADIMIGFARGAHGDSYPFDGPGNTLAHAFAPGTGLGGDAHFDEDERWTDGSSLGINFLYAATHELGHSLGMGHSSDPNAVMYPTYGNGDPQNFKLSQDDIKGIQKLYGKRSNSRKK
# MMP-13 = MMP-13 (Homo sapiens, UniProt P45452)
# multiple sclerosis = details: clinical study, 943 patients with primary progressive MS
# [2] = target: pseudolysin from P. aeruginosa (Pseudomonas aeruginosa, UniProt P14756)
# Sequence of pseudolysin from P. aeruginosa (P14756 198-498): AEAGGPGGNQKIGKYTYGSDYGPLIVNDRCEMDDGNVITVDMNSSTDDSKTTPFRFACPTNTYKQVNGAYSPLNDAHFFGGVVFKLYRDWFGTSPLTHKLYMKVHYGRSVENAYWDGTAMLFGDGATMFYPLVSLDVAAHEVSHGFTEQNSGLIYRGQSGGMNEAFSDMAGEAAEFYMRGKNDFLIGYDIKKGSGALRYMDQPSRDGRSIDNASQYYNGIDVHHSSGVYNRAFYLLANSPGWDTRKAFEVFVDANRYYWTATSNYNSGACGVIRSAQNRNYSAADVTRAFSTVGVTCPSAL
# [3] = target: T5, rabbit MMP-3 catalytic domains (Oryctolagus cuniculus, UniProt P28863); details: competitive inhibitor
# T5 construct: rabbit MMP-3 catalytic domains
# T5 sequence (P28863 101-273 limits assumed): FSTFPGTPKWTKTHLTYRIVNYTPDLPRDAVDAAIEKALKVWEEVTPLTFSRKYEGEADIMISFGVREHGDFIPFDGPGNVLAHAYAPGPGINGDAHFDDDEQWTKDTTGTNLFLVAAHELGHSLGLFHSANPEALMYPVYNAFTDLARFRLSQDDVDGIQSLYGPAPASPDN
# MMP-3 [4] = target: T3, MMP-3; details: for Ki values, human MMP-3 catalytic domain: competitive inhibitor
# Target sequence in this assay (P08254 100-477): as the sequence (P08254 100-477, species assumed) above
# [5] = target: murine macrophage metalloelastase (MME/MMP-12) (Mus musculus, UniProt P34960)
# Sequence of murine macrophage metalloelastase (MME/MMP-12) (P34960 110-473): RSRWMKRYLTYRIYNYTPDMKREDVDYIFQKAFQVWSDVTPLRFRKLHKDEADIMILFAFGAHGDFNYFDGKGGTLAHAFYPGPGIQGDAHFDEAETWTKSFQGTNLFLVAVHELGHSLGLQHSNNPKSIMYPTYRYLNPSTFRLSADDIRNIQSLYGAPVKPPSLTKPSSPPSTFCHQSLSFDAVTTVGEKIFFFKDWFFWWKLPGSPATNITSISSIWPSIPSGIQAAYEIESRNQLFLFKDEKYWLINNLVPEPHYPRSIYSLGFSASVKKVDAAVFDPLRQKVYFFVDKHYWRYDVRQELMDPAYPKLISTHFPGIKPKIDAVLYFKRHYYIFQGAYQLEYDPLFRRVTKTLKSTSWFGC
# MMP-8 = MMP-8 (Homo sapiens, UniProt P22894)
# Sequence of MMP-8 (P22894 101-467, species assumed): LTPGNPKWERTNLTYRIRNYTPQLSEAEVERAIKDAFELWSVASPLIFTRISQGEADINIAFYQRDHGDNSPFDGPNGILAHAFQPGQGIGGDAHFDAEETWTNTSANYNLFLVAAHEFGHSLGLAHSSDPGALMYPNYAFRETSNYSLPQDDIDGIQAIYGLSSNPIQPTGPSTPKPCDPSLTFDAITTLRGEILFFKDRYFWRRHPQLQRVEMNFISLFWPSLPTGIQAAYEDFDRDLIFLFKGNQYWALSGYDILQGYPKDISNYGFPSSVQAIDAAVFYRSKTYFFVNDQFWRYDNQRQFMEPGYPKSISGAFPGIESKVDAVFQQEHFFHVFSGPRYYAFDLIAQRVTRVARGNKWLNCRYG
# TACE = TACE (Homo sapiens, UniProt P78536)
# Sequence of TACE (P78536 215-824): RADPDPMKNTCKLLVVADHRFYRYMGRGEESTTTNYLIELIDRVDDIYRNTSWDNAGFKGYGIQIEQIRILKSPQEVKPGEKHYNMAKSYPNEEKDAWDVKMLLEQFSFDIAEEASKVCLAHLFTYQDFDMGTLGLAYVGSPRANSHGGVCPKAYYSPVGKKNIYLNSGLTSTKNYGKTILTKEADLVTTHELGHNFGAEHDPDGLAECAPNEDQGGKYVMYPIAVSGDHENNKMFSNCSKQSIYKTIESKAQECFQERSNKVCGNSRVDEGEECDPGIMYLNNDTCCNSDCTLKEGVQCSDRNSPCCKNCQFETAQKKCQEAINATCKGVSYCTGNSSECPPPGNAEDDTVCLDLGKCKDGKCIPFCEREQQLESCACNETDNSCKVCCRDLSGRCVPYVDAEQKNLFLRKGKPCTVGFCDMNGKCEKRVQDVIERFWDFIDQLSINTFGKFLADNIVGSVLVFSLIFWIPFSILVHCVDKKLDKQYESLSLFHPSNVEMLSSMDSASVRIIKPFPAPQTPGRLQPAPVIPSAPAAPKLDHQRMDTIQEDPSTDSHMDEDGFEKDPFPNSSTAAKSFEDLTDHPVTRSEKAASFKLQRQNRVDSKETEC
# Sequence of MMP-9 (P14780 94-707, species assumed): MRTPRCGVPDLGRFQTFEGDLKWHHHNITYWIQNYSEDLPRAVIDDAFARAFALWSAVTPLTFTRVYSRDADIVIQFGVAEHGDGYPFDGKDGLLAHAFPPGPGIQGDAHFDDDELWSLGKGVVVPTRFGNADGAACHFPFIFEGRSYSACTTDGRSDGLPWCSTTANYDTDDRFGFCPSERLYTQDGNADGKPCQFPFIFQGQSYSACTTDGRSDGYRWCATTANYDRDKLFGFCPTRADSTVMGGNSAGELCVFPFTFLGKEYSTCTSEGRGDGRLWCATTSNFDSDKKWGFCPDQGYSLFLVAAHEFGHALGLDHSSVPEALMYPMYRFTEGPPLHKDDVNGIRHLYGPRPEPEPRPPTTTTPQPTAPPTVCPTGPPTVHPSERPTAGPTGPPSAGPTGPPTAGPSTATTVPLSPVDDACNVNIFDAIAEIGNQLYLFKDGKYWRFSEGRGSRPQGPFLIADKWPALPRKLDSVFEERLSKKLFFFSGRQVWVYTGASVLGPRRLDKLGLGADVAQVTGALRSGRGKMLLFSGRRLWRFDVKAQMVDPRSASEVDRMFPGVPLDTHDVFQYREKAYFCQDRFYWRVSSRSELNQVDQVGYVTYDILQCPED
molecule,measurement,setting,value
"O=S(=O)(CCC(S)CS)c1ccc(Oc2ccccc2)cc1 (centres unmarked) [compound 1, 4-(4-phenoxyphenylsulfonyl)butane-1,2-dithiol]",inhibition of MMP-9,MMP-9,bind selectively and inhibit potently
same,inhibition of MMP-2,MMP-2,bind selectively and inhibit potently
CNC(=O)C(CCc1ccccc1)NC(=O)C(CC(=O)NO)CC(C)C (centres unmarked) [MMP Inhibitor III],IC50,MMP-1,7.4 nM
same,IC50,MMP-3 [1],135 nM
same,IC50,MMP-7,10 to 100 nM
same,IC50,MMP-2,2.3 nM
same,IC50,MMP-13,1 to 10 nM
H-Cys1-Thr-Thr-His-Trp-Gly-Phe-Thr-Leu-Cys10-OH (cyclic: 1 → 10) [MMP-2/MMP-9 Inhibitor III],IC50,MMP-2,10000 nM
"O=S(=O)(CCCC(S)CS)c1ccc(Oc2ccccc2)cc1 (centres unmarked) [compound 2, 5-(4-phenoxyphenylsulfonyl)pentane-1,2-dithiol]",inhibition of MMP-9,MMP-9,bind selectively and inhibit potently
same,inhibition of MMP-2,MMP-2,bind selectively and inhibit potently
CCCCCCCC/C=C\CCCCCCCC(=O)NO [MMP-2 Inhibitor I (OA-Hy)],Ki,MMP-2,1700 nM
glatiramer acetate,progression of disability and disease,multiple sclerosis,failed to halt the progression of disability and the disease
HONH—COCH2CH2CO-Phe-Ala-NH2 [MMP Inhibitor IV],inhibition of pseudolysin from P. aeruginosa,[2],potently inhibits MMPs and
"O=C(O)CCC(=NO)c1ccc2oc3ccccc3c2c1 [MMP-3 Inhibitor V, 4-Dibenzofuran-2′-yl-4-hydroximino-butyric Acid]","Ki values, rabbit MMP-3 catalytic domain",[3],the low μM range.
same,"Ki values, human MMP-3 catalytic domain",MMP-3 [4],the low μM range.
COc1ccc(S(=O)(=O)N(Cc2ccccc2)C(CC(C)C)C(=O)NO)cc1 (centres unmarked) [MMP-3 Inhibitor VIII],Ki,MMP-3 [4],23 nM
same,IC50,[5],13 nM
"N=C(NCCCCCCNC(=N)NC(=N)Nc1ccc(Cl)cc1)NC(=N)Nc1ccc(Cl)cc1 [Chlorhexidine, Dihydrochloride]",inhibition of MMP-9,MMP-9,Acts as a Zn2+-chelating inhibitor of MMP-2 and MMP-9.
same,inhibition of MMP-2,MMP-2,Acts as a Zn2+-chelating inhibitor of MMP-2 and MMP-9.
CC(C)C[C@H](CC(=O)O)C(=O)N[C@@H](Cc1c[nH]c2ccccc12)C(=O)N[C@@H](C)c1ccccc1 [GM 1489],Ki,MMP-1,0.2 nM
same,Ki,MMP-3 [1],20000 nM
same,Ki,MMP-8,100 nM
same,Ki,MMP-9,100 nM
same,Ki,MMP-2,500 nM
4-Abz-Gly-Pro-D-Leu-D-Ala-NH—OH [MMP Inhibitor I (FN-439)],IC50,MMP-1,1000 nM
same,IC50,MMP-3 [1],150000 nM
same,IC50,MMP-8,1000 nM
same,IC50,MMP-9,30000 nM
"O=C(O)CCC(=NO)c1ccc(-c2ccccc2)cc1 [MMP-3 Inhibitor VI, 4-(4′-Biphenyl)-4-hydroxyimino-butyric Acid]","Ki values, rabbit MMP-3 catalytic domain",[3],the low μM range.
same,"Ki values, human MMP-3 catalytic domain",MMP-3 [4],the low μM range.
"RCGVPD [MMP-3 Inhibitor I, Ac-Arg-Cys-Gly-Val-Pro-Asp-NH2]",IC50,MMP-3 [1],5000 nM
O=C(NCCCCN1CCOCC1)c1cc2ccccc2o1 [CL-82198],inhibition of MMP-1,MMP-1,Does not inhibit
same,inhibition of TACE,TACE,Does not inhibit
same,inhibition of MMP-9,MMP-9,Does not inhibit
same,IC50,MMP-13,10000 nM
"CC(NC(=O)C(Cc1ccccc1)NC(=O)CCC(=O)NO)C(N)=O (centres unmarked) [MMP-2/MMP-9 Inhibitor IV, HONH—COCH2CH2CO-FA-NH2]",Ki,MMP-9,600 nM
same,Ki,MMP-2,13.9 nM
COC(=O)[C@H](Cc1ccccc1)NC(=O)Nc1nnc(S)s1 [MMP-2/MMP-3 Inhibitor I],Ki,MMP-2,17000 nM
